Earlier results, collected in patent US20190053509A1, “NITROUS OXIDE MIXTURES AND METHODS OF USE” (Korvata Inc., priority 2015, published 2019).
Read-outs that look alike come from different tables or passages of the source.

Tests used:
[1] = 101.3 kPa (1 atm); for Bunsen solubility coefficient in olive oil: olive oil at 22° C.; for Bunsen solubility coefficient in water: water at 0° C.
[2] = relative to nitrogen standardized to 1.0; from J Applied Physiology 1994; 76(1): 439-444

SMILES: [Xe] [Xe, xenon]
- Bunsen solubility coefficient in olive oil [1]: 1.9 L gas/L
- Bunsen solubility coefficient in water [1]: 0.1920 L gas/L

SMILES: [Ar] [Ar, argon]
- Bunsen solubility coefficient in olive oil [1]: 0.15 L gas/L
- Bunsen solubility coefficient in water [1]: 0.0421 L gas/L
- RNP (Relative Narcotic Potency) [2]: 2.3

SMILES: O=O [Example O2, oxygen]
- Bunsen solubility coefficient in olive oil [1]: 0.11 L gas/L
- Bunsen solubility coefficient in water [1]: 0.0387 L gas/L

SMILES: [N-]=[N+]=O [Example N2O, nitrous oxide]
- Bunsen solubility coefficient in olive oil [1]: 3.6 L gas/L
- Bunsen solubility coefficient in water [1]: 1.0710 L gas/L
- RNP (Relative Narcotic Potency) [2]: 39
- lipid solubility (25° C. and 36 psi): 7.08 mg/mL
- lipid solubility (25° C. and 181 psi): 23.14 mg/mL

SMILES: [Ne] [Ne, neon]
- Bunsen solubility coefficient in olive oil [1]: 0.052 L gas/L
- Bunsen solubility coefficient in water [1]: 0.0101 L gas/L
- RNP (Relative Narcotic Potency) [2]: 0.3

SMILES: [He] [He, helium]
- Bunsen solubility coefficient in olive oil [1]: 0.015 L gas/L
- Bunsen solubility coefficient in water [1]: 0.0078 L gas/L
- RNP (Relative Narcotic Potency) [2]: 0.045

SMILES: [Kr] [Kr, krypton]
- Bunsen solubility coefficient in olive oil [1]: 0.44 L gas/L
- Bunsen solubility coefficient in water [1]: 0.0856 L gas/L
- RNP (Relative Narcotic Potency) [2]: 7.1
